Reference: ChEMBL document CHEMBL1201862, “PubChem BioAssay data set” (2004)
Active and inactive are the calls of the source.

How the values were obtained:
[1] = Luminescence Cell-Based Dose Retest to Confirm Inhibitors of Cancer Stem Cells. [Related pubchem assays (depositor defined):AID2717, AID2721]; type: functional; conditions: Homo sapiens
[2] = cytotoxicity in HMLE control line with eGFP shRNA, dose response, counter-screen for HMLE_sh_ECad selective toxicity project, cell-based, HMLE_sh_eGFP, luminescence (AID 463074); type: functional, Homo sapiens;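 note: HMLE human mammary epithelial cells expressing control shRNA against eGFP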
[3] = molecular target: Sphingosine 1-phosphate receptor 5 (Homo sapiens, UniProt Q9H228); assay: Late stage counterscreen assay for S1P4 antagonists: Fluorescence dose response cell-based screening assay for antagonists of the Sphingosine 1-Phosphate Receptor 5 (S1P5). [Related pubchem assays (depositor defined):AID1510, AID1524, AID1692, AID1853, AID2332, AID489009, AID489017]; type: functional
Sphingosine 1-phosphate receptor 5, sequence (Q9H228 whole entry): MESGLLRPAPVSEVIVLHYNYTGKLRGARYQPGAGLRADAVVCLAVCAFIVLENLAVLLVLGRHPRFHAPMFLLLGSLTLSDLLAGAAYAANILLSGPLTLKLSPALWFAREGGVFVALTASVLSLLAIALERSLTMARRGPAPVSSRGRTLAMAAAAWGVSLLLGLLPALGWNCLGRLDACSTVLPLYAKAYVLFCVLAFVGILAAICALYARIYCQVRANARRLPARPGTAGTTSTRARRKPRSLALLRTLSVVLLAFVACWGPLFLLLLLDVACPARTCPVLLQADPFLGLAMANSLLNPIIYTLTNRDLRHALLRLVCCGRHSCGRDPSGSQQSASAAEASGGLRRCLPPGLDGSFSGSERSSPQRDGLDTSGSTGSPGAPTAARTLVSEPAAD

[4] = molecular target: Sphingosine 1-phosphate receptor 3 (Homo sapiens, UniProt Q99500); assay: Late stage counterscreen assay for S1P4 antagonists: Fluorescence dose response cell-based screening assay for antagonists of the Sphingosine 1-Phosphate Receptor 3 (S1P3). [Related pubchem assays (depositor defined):AID1510, AID1524, AID1692, AID1853, AID2332, AID489009, AID489017]; type: functional
[5] = molecular target: Sphingosine 1-phosphate receptor 1 (Homo sapiens, UniProt P21453); assay: Late stage counterscreen assay for S1P4 antagonists: Fluorescence dose response cell-based screening assay for antagonists of the Sphingosine 1-Phosphate Receptor 1 (S1P1). [Related pubchem assays (depositor defined):AID1510, AID1524, AID1692, AID1853, AID2332, AID489009, AID489017]; type: functional
[6] = molecular target: Sphingosine 1-phosphate receptor 2 (Homo sapiens, UniProt O95136); assay: Late stage counterscreen assay for S1P4 antagonists: Fluorescence dose response cell-based screening assay for antagonists of the Sphingosine 1-Phosphate Receptor 2 (S1P2). [Related pubchem assays (depositor defined):AID1510, AID1524, AID1692, AID1853, AID2332, AID489009, AID489017]; type: functional
[7] = molecular target: T1, Tyrosine-protein phosphatase non-receptor type 7 (Homo sapiens, UniProt P35236); type: functional
T1 sequence (P35236 whole entry): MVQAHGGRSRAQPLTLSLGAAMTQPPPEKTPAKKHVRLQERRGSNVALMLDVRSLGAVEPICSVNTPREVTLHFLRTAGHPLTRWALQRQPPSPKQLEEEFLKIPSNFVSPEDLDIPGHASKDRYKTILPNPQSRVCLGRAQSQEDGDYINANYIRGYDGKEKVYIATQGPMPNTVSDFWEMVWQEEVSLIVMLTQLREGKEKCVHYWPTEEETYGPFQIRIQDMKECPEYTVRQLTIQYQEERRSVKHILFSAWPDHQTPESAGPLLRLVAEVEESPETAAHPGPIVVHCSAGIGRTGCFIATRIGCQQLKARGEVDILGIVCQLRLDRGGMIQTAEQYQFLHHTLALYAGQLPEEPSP

[8] = molecular target: T2, Tyrosine-protein phosphatase non-receptor type 22 (Homo sapiens, UniProt Q9Y2R2); type: functional
T2 sequence (Q9Y2R2 whole entry): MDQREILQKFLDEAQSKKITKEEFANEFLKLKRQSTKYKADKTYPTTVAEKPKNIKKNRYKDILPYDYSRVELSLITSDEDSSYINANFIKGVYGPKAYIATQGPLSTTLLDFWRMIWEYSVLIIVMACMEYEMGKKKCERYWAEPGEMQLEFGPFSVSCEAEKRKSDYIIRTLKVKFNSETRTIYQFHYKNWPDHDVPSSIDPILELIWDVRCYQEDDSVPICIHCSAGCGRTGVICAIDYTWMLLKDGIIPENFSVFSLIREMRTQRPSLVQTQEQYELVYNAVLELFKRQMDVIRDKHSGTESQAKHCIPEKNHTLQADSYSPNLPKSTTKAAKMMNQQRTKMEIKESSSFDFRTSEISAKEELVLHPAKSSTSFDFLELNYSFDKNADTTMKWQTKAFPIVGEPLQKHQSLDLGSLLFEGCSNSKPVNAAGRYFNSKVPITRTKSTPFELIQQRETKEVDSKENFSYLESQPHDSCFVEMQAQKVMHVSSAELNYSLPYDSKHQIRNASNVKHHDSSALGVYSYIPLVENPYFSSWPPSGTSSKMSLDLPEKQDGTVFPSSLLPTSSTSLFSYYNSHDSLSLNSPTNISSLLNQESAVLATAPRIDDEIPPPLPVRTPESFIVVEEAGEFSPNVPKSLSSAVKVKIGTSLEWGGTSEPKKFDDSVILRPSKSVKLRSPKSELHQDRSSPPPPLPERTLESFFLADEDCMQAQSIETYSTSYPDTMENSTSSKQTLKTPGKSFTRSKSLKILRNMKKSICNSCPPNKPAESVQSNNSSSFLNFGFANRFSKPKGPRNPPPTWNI

[9] = molecular target: T2, Tyrosine-protein phosphatase non-receptor type 22; type: functional; remark: listed apart in the source
Trypsin = Trypsin (Sus scrofa, UniProt P00761); assay: porcine trypsin inhibitors, dose response, selectivity assay for Rce1 protease inhibitor project, biochemical, quenched peptide fluorescence, cherry-pick (AID 488789)
Trypsin, sequence (P00761 whole entry): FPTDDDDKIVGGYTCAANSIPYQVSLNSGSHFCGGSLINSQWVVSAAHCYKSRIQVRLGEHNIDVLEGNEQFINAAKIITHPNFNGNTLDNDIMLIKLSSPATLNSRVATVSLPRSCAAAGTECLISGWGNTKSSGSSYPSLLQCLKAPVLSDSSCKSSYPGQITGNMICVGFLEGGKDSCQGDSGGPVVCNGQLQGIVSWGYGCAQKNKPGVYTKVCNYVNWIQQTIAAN

CAAX prenyl protease 1 = CAAX prenyl protease 1 (Saccharomyces cerevisiae S288c, UniProt P47154); assay: Ste24 protease inhibitors, dose response, biochemical, S. cerevisiae, plate reader, cherry-pick (AID 488815)
CAAX prenyl protease 2 = CAAX prenyl protease 2 (Homo sapiens, UniProt Q9Y256); assay: human Rce1 protease inhibitors, dose response, biochemical, yeast membranes, quenched-peptide fluorescence, cherry-pick (AID 588849)
CAAX prenyl protease 2, sequence (Q9Y256 whole entry): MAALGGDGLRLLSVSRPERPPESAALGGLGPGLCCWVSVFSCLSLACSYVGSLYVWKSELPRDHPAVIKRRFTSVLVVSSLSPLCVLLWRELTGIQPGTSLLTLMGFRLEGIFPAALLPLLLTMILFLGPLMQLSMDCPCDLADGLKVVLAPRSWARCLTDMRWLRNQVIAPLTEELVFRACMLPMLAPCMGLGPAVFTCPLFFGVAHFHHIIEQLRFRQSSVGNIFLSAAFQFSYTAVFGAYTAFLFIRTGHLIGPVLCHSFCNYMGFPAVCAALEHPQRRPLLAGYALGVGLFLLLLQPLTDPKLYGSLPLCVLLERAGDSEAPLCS

[10] = NIH-3T3 fibroblast cytotoxicity, dose response, cytotoxicity control, cell-based, fluorescence, Alamar Blue, secondary assay (AID 2327); type: functional;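 note: NIH-3T3 mouse fibroblasts cultured with fluconazole at 8 µg/mL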
[11] = C. albicans growth with fluconazole, confirmation, fluorescence, retest (AID 2467); type: functional, cell-based
Exodeoxyribonuclease V = Exodeoxyribonuclease V (Escherichia coli (strain K12), UniProt P04993+P07648+P08394); assay: E. coli RecBCD inhibitors, dose response, counter-screen for AddAB inhibitor project, absorbance, V66 E. coli, mutant T4 phage (AID 492957); type: functional, cell-based, Escherichia coli str. K-12 substr. MG1655
Exodeoxyribonuclease V, sequence (P04993 whole entry): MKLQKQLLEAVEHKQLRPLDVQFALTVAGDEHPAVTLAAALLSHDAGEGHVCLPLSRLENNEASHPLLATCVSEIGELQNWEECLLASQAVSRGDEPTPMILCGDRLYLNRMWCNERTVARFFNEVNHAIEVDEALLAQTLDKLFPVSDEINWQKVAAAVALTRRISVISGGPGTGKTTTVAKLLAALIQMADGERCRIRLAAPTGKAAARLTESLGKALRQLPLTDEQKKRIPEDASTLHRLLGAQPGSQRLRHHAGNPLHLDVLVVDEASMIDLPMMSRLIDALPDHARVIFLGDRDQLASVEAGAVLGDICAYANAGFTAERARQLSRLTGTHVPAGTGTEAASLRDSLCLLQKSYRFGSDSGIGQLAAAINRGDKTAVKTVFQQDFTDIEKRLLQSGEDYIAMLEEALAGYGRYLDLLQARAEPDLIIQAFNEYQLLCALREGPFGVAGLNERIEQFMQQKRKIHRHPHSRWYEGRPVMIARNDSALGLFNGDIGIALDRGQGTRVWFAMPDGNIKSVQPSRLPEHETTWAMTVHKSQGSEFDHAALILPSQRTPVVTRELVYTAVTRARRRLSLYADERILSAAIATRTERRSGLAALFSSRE
Exodeoxyribonuclease V, sequence (P07648 whole entry): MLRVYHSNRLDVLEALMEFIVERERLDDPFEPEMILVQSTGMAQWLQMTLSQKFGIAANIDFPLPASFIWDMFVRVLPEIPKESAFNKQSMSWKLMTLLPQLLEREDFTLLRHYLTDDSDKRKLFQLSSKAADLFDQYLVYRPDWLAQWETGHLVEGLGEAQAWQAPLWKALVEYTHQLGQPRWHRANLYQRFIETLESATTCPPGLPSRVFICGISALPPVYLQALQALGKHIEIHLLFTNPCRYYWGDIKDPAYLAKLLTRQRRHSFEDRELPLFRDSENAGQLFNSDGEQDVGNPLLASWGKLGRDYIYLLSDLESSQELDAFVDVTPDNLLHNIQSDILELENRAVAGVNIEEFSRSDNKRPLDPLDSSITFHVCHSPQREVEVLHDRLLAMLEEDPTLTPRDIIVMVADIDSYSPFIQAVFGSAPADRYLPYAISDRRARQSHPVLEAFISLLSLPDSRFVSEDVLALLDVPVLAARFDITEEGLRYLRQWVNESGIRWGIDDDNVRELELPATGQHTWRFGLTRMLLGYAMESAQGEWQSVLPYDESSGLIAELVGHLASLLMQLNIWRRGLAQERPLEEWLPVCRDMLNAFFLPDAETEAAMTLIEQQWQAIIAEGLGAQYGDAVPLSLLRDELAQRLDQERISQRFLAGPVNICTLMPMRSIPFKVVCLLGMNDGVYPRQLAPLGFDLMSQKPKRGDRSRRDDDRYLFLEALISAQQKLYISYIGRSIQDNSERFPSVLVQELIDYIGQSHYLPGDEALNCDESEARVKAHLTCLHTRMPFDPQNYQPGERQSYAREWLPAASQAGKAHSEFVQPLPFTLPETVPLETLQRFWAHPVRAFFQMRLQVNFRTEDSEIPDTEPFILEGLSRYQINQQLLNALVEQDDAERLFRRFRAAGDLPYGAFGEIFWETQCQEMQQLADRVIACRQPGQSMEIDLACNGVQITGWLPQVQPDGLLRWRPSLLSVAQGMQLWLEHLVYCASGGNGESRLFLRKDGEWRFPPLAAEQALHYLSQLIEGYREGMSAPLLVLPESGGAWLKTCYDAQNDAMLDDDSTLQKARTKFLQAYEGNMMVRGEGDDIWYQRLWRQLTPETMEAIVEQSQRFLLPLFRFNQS
Exodeoxyribonuclease V, sequence (P08394 whole entry): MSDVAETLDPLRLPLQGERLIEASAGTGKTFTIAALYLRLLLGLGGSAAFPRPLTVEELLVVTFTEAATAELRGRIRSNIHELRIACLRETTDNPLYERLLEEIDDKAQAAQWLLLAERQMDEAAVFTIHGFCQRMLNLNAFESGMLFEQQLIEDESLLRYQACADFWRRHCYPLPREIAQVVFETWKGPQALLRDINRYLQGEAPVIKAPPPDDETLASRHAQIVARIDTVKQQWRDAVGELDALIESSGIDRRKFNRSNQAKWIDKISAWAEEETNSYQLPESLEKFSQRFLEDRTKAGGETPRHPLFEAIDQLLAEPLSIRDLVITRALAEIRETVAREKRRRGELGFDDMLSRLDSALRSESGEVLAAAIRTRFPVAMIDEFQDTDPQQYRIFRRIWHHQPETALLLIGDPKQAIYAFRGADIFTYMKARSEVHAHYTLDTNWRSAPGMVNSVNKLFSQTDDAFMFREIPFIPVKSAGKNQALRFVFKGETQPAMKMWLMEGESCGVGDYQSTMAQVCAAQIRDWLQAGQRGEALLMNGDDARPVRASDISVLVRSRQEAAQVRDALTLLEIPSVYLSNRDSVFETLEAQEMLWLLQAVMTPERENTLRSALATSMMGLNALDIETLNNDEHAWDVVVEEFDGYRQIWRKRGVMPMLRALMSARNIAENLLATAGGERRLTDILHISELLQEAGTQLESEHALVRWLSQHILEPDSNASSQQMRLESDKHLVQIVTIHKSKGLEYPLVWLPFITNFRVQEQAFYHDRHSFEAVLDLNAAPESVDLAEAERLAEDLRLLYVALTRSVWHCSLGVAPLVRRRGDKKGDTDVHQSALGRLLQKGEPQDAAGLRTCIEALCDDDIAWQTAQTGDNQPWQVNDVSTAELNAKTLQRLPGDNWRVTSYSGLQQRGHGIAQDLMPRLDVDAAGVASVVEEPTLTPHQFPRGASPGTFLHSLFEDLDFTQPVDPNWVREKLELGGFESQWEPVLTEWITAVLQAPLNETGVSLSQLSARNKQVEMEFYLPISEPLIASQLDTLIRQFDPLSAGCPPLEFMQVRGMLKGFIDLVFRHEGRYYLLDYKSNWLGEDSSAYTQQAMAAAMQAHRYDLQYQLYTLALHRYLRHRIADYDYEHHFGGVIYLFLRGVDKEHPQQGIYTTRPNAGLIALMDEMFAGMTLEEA

[12] = Counterscreen for AddAB inhibitors: absorbance-based bacterial cell-based high throughput dose response assay for inhibitors of bacterial viability. [Related pubchem assays (depositor defined):AID435030, AID449728, AID449731, AID488942, AID488955, AID488956]; type: functional
Vero = assay: cells; type: functional; conditions: Chlorocebus sabaeus
[13] = human group III sPLA2 inhibitors, dose response, biochemical, QFRET, IC50 (AID 743457);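 note: green fluorescence rise as the enzyme cleaves BODIPY PC-A2 in liposomes; potency for inhibition of the enzyme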
[14] = molecular target: Intestinal-type alkaline phosphatase (Mus musculus, UniProt P24822); assay: PubChem AID 488874; type: functional
Intestinal-type alkaline phosphatase (Mus musculus, UniProt P24822), sequence (P24822 whole entry): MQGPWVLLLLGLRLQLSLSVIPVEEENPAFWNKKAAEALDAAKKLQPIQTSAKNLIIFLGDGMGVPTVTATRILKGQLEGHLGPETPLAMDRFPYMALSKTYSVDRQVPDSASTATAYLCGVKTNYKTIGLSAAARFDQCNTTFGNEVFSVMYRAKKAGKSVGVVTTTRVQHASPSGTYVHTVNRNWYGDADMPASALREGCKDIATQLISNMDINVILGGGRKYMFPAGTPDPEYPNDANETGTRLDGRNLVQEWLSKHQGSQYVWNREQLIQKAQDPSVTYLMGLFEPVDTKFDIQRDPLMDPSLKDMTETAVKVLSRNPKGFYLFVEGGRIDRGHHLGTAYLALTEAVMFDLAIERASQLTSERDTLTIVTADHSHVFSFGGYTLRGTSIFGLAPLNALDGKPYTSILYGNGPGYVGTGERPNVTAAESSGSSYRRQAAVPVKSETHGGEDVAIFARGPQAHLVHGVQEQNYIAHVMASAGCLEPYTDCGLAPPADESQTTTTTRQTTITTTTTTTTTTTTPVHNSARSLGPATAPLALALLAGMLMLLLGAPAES

[15] = molecular target: T3, Intestinal-type alkaline phosphatase (Homo sapiens, UniProt P09923); assay: human IAP inhibitors, dose response, biochemical, luminescent, uHTS hits, set 2 (AID 488793); type: functional
T3 sequence (P09923 whole entry): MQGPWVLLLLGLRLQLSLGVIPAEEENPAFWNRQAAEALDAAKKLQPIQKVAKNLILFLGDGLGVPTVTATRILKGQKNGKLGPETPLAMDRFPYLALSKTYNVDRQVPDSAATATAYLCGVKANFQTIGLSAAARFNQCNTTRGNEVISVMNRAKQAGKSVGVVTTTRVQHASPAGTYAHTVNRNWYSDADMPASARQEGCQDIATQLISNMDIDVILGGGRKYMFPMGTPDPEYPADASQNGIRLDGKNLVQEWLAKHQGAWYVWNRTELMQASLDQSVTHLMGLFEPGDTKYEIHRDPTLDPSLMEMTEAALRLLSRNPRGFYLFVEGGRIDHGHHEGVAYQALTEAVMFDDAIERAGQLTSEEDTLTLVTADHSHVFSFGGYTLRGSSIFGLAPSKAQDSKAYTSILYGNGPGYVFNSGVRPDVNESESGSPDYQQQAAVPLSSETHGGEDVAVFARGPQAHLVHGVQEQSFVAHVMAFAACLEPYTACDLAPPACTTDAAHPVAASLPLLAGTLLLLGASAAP

[16] = molecular target: T3, Intestinal-type alkaline phosphatase; assay: Dose Response confirmation of uHTS hits from a small molecule inhibitors of human intestinal alkaline phosphatase via a luminescent assay. [Related pubchem assays (depositor defined):AID2544, AID2574]; type: functional
[17] = molecular target: T4, Alkaline phosphatase, tissue-nonspecific isozyme (Homo sapiens, UniProt P05186); assay: inhibition of tissue-nonspecific alkaline phosphatase – biochemical, dose response (AID 488882); type: functional
T4 sequence (P05186 whole entry): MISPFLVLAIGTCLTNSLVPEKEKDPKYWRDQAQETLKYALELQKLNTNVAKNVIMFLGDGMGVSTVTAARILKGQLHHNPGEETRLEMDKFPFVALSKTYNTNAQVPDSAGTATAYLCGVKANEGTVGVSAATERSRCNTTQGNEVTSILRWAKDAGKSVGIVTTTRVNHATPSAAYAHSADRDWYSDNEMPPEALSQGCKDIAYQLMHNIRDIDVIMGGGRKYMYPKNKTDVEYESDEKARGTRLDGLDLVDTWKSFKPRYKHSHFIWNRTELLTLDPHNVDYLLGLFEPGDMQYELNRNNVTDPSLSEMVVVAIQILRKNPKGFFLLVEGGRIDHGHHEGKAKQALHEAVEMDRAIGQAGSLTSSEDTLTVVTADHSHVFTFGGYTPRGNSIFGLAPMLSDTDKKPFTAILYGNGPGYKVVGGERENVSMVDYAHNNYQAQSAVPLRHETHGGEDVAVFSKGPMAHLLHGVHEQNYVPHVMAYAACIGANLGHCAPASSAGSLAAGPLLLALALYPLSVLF

Tumor necrosis factor = Tumor necrosis factor (Homo sapiens, UniProt P01375); assay: TNFa-triggered NF-kB activation inhibitors, SAR follow-up, cell-based, revised (AID 2337); type: functional
[18] = molecular target: Nucleotide-binding oligomerization domain-containing protein 1 (Homo sapiens, UniProt Q9Y239); assay: NOD1 signaling inhibitors, SAR follow-up, revised (AID 2333); type: functional
HEK293 = assay: cells; conditions: Homo sapiens;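 note: cells exposed to compound for 14 hours overnight before viability readout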
[19] = insulin promoter down-regulators in MIN6 cells, imaging, high-content screening, mouse beta cells (AID 1628); type: functional
[20] = cytotoxicity in MIN6 insulinoma cells, dose response, cytotoxicity control, cell-based, mouse insulinoma (AID 2122); type: functional;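 note: confirmatory high-throughput counterscreen run to flag cytotoxic compounds; mouse MIN-6 beta cells carrying an insulin promoter eGFP reporter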
Trypanosoma cruzi = assay: growth inhibition of intracellular Trypanosoma cruzi, dose response, cell-based, plate reader, dry powder, set 3 (AID 493197); type: functional
[21] = inhibitors of Trypanosoma cruzi host-cell infection, confirmation, beta-gal luminescence, NIH3T3 host cells (AID 2630); type: functional, cell-based; conditions: Mus musculus

Cc1ccc(-c2ccc(OC(=O)c3ccc(O)nc3)c(C)c2)cc1
AC50 [1]: 17.5 µM (active) | AC50 [2]: 29.1 µM (active)

COc1cccc(OC)c1NC(=O)c1ccc(-c2cc(Cl)ccc2Cl)o1
IC50 [3]: > 25 µM (inactive) | IC50 [4]: 10.5 µM (inactive) | IC50 [5]: > 25 µM (inactive) | IC50 [6]: 20.7 µM (inactive)

COc1ccc2c(OC)cc(=O)n(C)c2c1
IC50 [7]: > 79.4 µM (inactive) | IC50 [8]: > 79.4 µM (inactive) | IC50 [9]: > 79.4 µM (inactive)

CCN(CC)CCn1c2ccccc2c2cnc(/N=C/N(C)C)c(C#N)c21
AC50 (Trypsin): 18 µM (active) | AC50 (CAAX prenyl protease 1): 4.5 µM (active) | AC50 (CAAX prenyl protease 2): 11.4 µM (active)

O=C(NC(=S)NNC(=O)c1cc2ccccc2cc1O)c1ccco1
EC50 [10]: > 160 µM (inactive) | EC50 [11]: 2.19 µM (active) | IC50 (Exodeoxyribonuclease V): > 119 µM (inactive) | IC50 [12]: > 119 µM (inactive) | CC50 (Vero): 14.4 µM (active) | IC50 [13]: > 40.6 µM (inactive)

O=C(/C=C/c1ccccc1O)c1ccco1
IC50 [14]: 62.9 µM (active) | IC50 [15]: 75.8 µM (active) | IC50 [16]: 47.6 µM (inactive) | IC50 [17]: 71.8 µM (active)

COc1ccc(N2CCN(S(=O)(=O)c3ccc4c(c3)CC(C)N4C(C)=O)CC2)cc1 (centres undefined)
IC50 (Tumor necrosis factor): 4.3 µM (active) | IC50 [18]: 3.63 µM (active) | IC50 (HEK293): > 20 µM (inactive)

CCn1c(SCc2ccccc2)nnc1-c1cccs1
IC50 [19]: 3.63 µM (active) | IC50 [20]: 2.36 µM (active)

COc1ccc(CN2CCCC(C(=O)N3CCCC3)C2)c(OC)c1OC (centres undefined)
AC50 (Trypanosoma cruzi): 1.01 µM (active) | EC50 [21]: 0.042 µM (active)
